Counter-ions that a name gives are not always drawn.
System: lean overnight fasted rats
Experiment: Fasted-refed acute feeding assay (reduction of food intake)
Assay type: in vivo, rat
Settings: 10 mg/kg p.o., single dose, measured at time points from 30 to 240 minutes
Excerpt: Evaluation of Compound's Efficacy on the Reduction of Food Intake (Suppression of Appetite) in Lean Overnight Fasted Rats
Fasted-Refed Acute Feeding Assay
The purpose of this protocol is to determine the effect of a single dose of an unknown compound on food consumption of lean overnight fasted rats. The fasted-refed rat model is frequently used in the field of obesity to identify compounds with potential for anorectic effects. This animal model has been successfully used in the identification and characterization of the efficacy profile of compounds that are or have been used in the management of body weight in obese humans (see, e.g., Balvet et al., Gen. Pharmacol. 13:293-297, 1982; Grignaschi et al., Br. J. Pharmacol. 127:1190-1194, 1999; McTavish and Heel, Drug 43:713-733, 1992; Rowland et al., Life Sci. 36:2295-2300, 1985). […]
The vehicle test: The rats are grouped based upon their performance on a vehicle test. […] After 1 hour, the spillage is returned to the food jar and the amount of food consumed is determined. […]
The efficacy test: The rats are fasted overnight during the dark phase (total of approx. 16-18 hr). […] Food intake is recorded 30, 60, 90, 180, and 240 minutes post-food return. […] The amount of food consumed is determined for each time point. Difference between treatment group is determined using appropriate statistical analysis.

SMILES: Cc1c(C(=O)NN2CCCCC2)cc(-c2ccc(Cl)cc2)n1-c1ccccc1Cl [Entry 23, 1-(2-chlorophenyl)-5-(4-chlorophenyl)-2-methyl-N-(1-piperidinyl)-1H-pyrrole-3-carboxamide hydrochloride]
- food consumption was reduced (relative to the food consumption observed for the vehicle control group): up to 25%

SMILES: COc1ccc(-c2c(C)c(C(=O)NNc3ccc(C(F)(F)F)cc3)c(C)n2-c2ccccc2Cl)cc1.Cl [Entry 43, 1-(2-chlorophenyl)-5-(4-methoxyphenyl)-2,4-dimethyl-N′-[4-(trifluoromethyl)phenyl]-1H-pyrrole-3-carbohydrazide hydrochloride]
- food consumption was reduced (relative to the food consumption observed for the vehicle control group): up to 35%
